One block for each molecule: values may come before it.
How the values were obtained:
[1] = test system: C. tyrobutyricum ATCC25755; assay: Free-cell culture with organic solution on top of the culture medium (Example 2); type: cell-based; conditions: free cells, 24 hours at 37° C.
Protocol: The culture medium was then inoculated with 0.08 ml of bacterial stock comprising C. tyrobutyricum ATCC25755. The initial optical density (OD) measured at a wavelength of 600 nm was 0.2. After inoculation, 0.8 ml of an organic solution (as listed in the Table 4 below) was added to the top of the culture medium. The bacteria was then cultured in Tecan infinite 200 Pro Multimode Microplate Readers (Tecan Group Ltd., Switzerland) for 24 hours at 37° C., with shaking once every 30 minutes.

[2] = test system: PVA-immobilized clostridium tyrobutyricum; assay: 2-liter tank fermentor extractive fermentation (Example 5); type: cell-based; conditions: 37° C., 40 hours
Text: A 2-liter tank fermentor 500 as illustrated in FIG. 5 was used in this Example. […] The medium was then purged with N2 to reach anaerobiosis. The pH of the basal medium was further adjusted to 6.0 with 2 N NaOH. Subsequently, the medium was inoculated with about 100 g of PVA-immobilized C. tyrobutyricum cell beads prepared as described above. An extractive fermentation-column reactor similar to the one shown in FIG. 5 was used in this example. The lower region of the reactor was filled with 700 ml of the basal medium containing glucose as the substrate and inoculated with about 70 ml of PVA-immobilized clostridium tyrobutyricum. In addition, the upper region of the reactor was filled with either 700 ml of 1 M TOPO in oleyl alcohol or 700 ml of oleyl alcohol without TOPO. The fermentation was conducted at 37° C. for 40 hours, and the pH of the fermentation medium was not controlled in this example.

[3] = Extraction of butyric acid from CGM medium with TOA in oleyl alcohol (Example 1.1); type: physicochemical; conditions: CGM medium with 5% butyric acid, pH 4, 37° C.
Protocol: 50 ml of CGM culture medium (basal medium, see the table provided immediately below) containing 5% of butyric acid (the pH of the CGM medium decreased to 4 after the addition of the butyric acid) was mixed with 5 ml of 0.7 M, 1 M, […] of trioctylamine (C24H51N, CAS No. 1116-76-3, abbreviation: TOA) in oleyl alcohol at 37° C.
The concentrations of butyric acid in the CGM culture medium (i.e., the aqueous phase) and in the trioctylamine solution (i.e., the organic phase) were measured every 12 hours by high performance liquid chromatography (HPLC).
The butyric acid distribution ratio (D) was calculated by dividing the concentration of butyric acid in the organic medium by the concentration of butyric acid in the aqueous medium: […]

[4] = Extraction of butyric acid from CGM medium with TOPO in oleyl alcohol (Example 1.2); type: physicochemical; conditions: 24 hours, 37° C.
Protocol: The butyric acid distribution ratio (D) was calculated by dividing the concentration of butyric acid in the organic medium by the concentration of butyric acid in the aqueous medium:
[…] The pH of the culture medium was further adjusted to a value ranging from 4 to 6 with 4 N NaOH and 4 N HCl.
After 24 hours, the concentrations of butyric acid in the CGM culture medium (the aqueous phase) and in the TOPO solution (the organic phase) were measured by HPLC.

[5] = test system: PVA-immobilized clostridium tyrobutyricum; assay: Extractive fermentation-column reactor, 1 M TOPO or TBP in oleyl alcohol (Example 4C); type: cell-based; conditions: 1 M extractant in oleyl alcohol as organic phase; 37° C., 100 hours
Protocol: In addition, the upper region of the reactor was filled with either 40 ml of 1 M TOPO in oleyl alcohol or 40 ml 1 M TBP in oleyl alcohol. The fermentation was conducted at 37° C. for 100 hours.

Distribution ratio of butryic acid [2]: 0.86
SMILES: CCCCCCCC/C=C\CCCCCCCCO [Oleyl alcohol only, oleyl alcohol]
Glucose consumption rate % [1]: 80.7% | Bacterial Growth rate (OD/h) ([1]; OD at 600 nm): 0.08 OD/h | % of glucose consumed [2]: 100%

Butyric acid distribution ratio (D) ([3]; 0.7M TOA in oleyl alcohol): 7.38 | Butyric acid distribution ratio (D) ([3]; 1M TOA in oleyl alcohol): 10.21 | Butyric acid distribution ratio (D) ([3]; 1.4M TOA in oleyl alcohol): 13.82
SMILES: CCCCCCCCN(CCCCCCCC)CCCCCCCC [TOA, trioctylamine]

butyric acid distribution ratio ([4]; TOPO 0.1 M in oleyl alcohol, butyric acid 1%, pH 4): 1.45 | butyric acid distribution ratio ([4]; TOPO 0.1 M in oleyl alcohol, butyric acid 1%, pH 5): 0.31 | butyric acid distribution ratio ([4]; TOPO 0.1 M in oleyl alcohol, butyric acid 1%, pH 6): 0.00 | butyric acid distribution ratio ([4]; TOPO 0.1 M in oleyl alcohol, butyric acid 2%, pH 4): 2.12 | butyric acid distribution ratio ([4]; TOPO 0.1 M in oleyl alcohol, butyric acid 2%, pH 5): 0.37 | butyric acid distribution ratio ([4]; TOPO 0.1 M in oleyl alcohol, butyric acid 2%, pH 6): 0.05 | butyric acid distribution ratio ([4]; TOPO 0.1 M in oleyl alcohol, butyric acid 3%, pH 4): 2.17 | butyric acid distribution ratio ([4]; TOPO 0.1 M in oleyl alcohol, butyric acid 3%, pH 5): 0.26 | butyric acid distribution ratio ([4]; TOPO 0.1 M in oleyl alcohol, butyric acid 3%, pH 6): 0.00 | butyric acid distribution ratio ([4]; TOPO 0.5 M in oleyl alcohol, butyric acid 1%, pH 4): 1.91 | butyric acid distribution ratio ([4]; TOPO 0.5 M in oleyl alcohol, butyric acid 1%, pH 5): 0.36 | butyric acid distribution ratio ([4]; TOPO 0.5 M in oleyl alcohol, butyric acid 1%, pH 6): 0.03 | butyric acid distribution ratio ([4]; TOPO 0.5 M in oleyl alcohol, butyric acid 2%, pH 4): 2.82 | butyric acid distribution ratio ([4]; TOPO 0.5 M in oleyl alcohol, butyric acid 2%, pH 5): 0.37 | butyric acid distribution ratio ([4]; TOPO 0.5 M in oleyl alcohol, butyric acid 2%, pH 6): 0.06 | butyric acid distribution ratio ([4]; TOPO 0.5 M in oleyl alcohol, butyric acid 3%, pH 4): 2.90 | butyric acid distribution ratio ([4]; TOPO 0.5 M in oleyl alcohol, butyric acid 3%, pH 5): 0.35 | butyric acid distribution ratio ([4]; TOPO 0.5 M in oleyl alcohol, butyric acid 3%, pH 6): 0.04 | butyric acid distribution ratio ([4]; TOPO 1 M in oleyl alcohol, butyric acid 1%, pH 4): 2.67 | butyric acid distribution ratio ([4]; TOPO 1 M in oleyl alcohol, butyric acid 1%, pH 5): 0.42 | butyric acid distribution ratio ([4]; TOPO 1 M in oleyl alcohol, butyric acid 1%, pH 6): 0.06 | butyric acid distribution ratio ([4]; TOPO 1 M in oleyl alcohol, butyric acid 2%, pH 4): 3.88 | butyric acid distribution ratio ([4]; TOPO 1 M in oleyl alcohol, butyric acid 2%, pH 5): 0.43 | butyric acid distribution ratio ([4]; TOPO 1 M in oleyl alcohol, butyric acid 2%, pH 6): 0.04 | butyric acid distribution ratio ([4]; TOPO 1 M in oleyl alcohol, butyric acid 3%, pH 4): 4.20 | butyric acid distribution ratio ([4]; TOPO 1 M in oleyl alcohol, butyric acid 3%, pH 5): 0.35 | butyric acid distribution ratio ([4]; TOPO 1 M in oleyl alcohol, butyric acid 3%, pH 6): 0.04
SMILES: CCCCCCCCP(=O)(CCCCCCCC)CCCCCCCC [TOPO, trioctylphosphine oxide]
Cells growth (Δ OD600) [5]: 6.0
